Counter-ions that a name gives are not always drawn.
Legend:
[1] = target: 5-HT1 receptor; test: Affinity for the 5-HT1 receptor, receptor binding studies with 3H-serotonin on calf hippocampus membrane preparations
From the text: Affinity for the 5-HT1 receptor
In Table 1, the high affinity of the compounds according to the invention for 5-hydroxytryptamine receptors of the subtype 1 is represented by way of example. The values given are data which have been determined from receptor binding studies using calf hippocampus membrane preparations. The radioactively labelled ligand used for this was ^3 H-serotonin.

[2] = target: T1, 5-HT1A receptor (Bos taurus, UniProt F6Q2H9); test: Affinity for the 5-HT1A receptor, binding of 3H-ipsapirone in calf hippocampus membranes
T1 construct: 5-HT1A receptors in calf hippocampus membranes; from tissue; host or cells: calf hippocampus membranes
T1 sequence (F6Q2H9 1-422): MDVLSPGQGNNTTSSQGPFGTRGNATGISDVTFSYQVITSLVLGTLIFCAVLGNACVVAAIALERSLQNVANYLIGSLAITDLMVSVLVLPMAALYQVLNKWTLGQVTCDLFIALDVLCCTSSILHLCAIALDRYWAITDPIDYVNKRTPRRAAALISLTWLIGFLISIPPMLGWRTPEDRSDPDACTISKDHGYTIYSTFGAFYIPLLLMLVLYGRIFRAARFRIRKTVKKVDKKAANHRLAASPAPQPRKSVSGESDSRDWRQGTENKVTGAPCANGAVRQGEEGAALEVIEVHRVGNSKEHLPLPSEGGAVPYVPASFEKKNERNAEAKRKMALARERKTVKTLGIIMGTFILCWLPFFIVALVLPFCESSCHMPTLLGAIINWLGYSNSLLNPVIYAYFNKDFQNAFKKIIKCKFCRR
Description: Affinity for the 5-HT1A receptor
[W. U. Dompert et al., Naunyn-Schmiedeberg's Arch. Pharmacol. (1985), 328, 467-470].
In this test, the binding of ^3 H-ipsapirone to 5-HT1A receptors in calf hippocampus membranes is measured.

[3] = target: T2, dopamine D2 receptor (Rattus norvegicus, UniProt P61169); test: Dopamine D2 receptor test, binding of 3H-sulpiride on membranes from the striatum of the rat; conditions: Ki calculated from IC50 of displacement curves
T2 construct: membranes from the striatum of the rat; from tissue; host or cells: rat striatum membranes
T2 sequence (P61169 whole entry): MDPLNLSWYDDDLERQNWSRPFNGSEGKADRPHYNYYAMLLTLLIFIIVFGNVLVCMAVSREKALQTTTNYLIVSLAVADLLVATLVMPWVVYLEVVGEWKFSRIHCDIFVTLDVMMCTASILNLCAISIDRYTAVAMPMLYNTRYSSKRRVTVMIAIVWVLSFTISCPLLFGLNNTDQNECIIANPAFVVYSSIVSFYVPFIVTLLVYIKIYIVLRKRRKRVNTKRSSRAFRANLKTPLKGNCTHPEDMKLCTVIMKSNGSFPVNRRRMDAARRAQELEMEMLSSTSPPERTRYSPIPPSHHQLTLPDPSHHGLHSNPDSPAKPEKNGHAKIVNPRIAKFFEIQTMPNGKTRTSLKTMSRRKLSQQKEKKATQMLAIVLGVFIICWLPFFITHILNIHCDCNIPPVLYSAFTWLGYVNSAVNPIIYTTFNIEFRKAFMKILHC
Description: Dopamine D2 receptor test
This test is carried out according to the following reference: Imafuku J. (1987), Brain Research 402; 331-338.
In this test, the binding of the selective D2 -receptor antagonist ^3 H-sulpiride on membranes from the striatum of the rat is measured. Compounds which bind to dopamine D2 -receptors inhibit the binding of ^3 H-sulpiride in a concentration-dependent manner. IC50 values are determined from the displacement curves and the inhibition constants Ki are calculated from these.

SMILES	Ki [1] [nM]	Ki [2] [nM]	Ki [3] [nM]
O=C1NCN(c2ccccc2)C12CCN(C[C@H]1CCc3ccccc3O1)CC2 [Example 4]	1		
O=C1NCN(c2ccccc2)C12CCN(CC1CCc3ccccc3O1)CC2 (centres unmarked) [Example 5, 8-(Chroman-2-yl-methyl)-1-phenyl-1,3,8-triazaspiro[4.5]-decan-4-one HCl salt]		1	
COc1cccc2c1OC(CN1CCC3(CC1)C(=O)NCN3c1ccccc1)CC2 (centres unmarked) [Example 2]	1.5		0.3
COc1cccc2c1OC(CN1CCC3(CC1)C(=O)NCN3c1ccccc1)CC2 (centres unmarked) [Example 6]		1	
O=C1NCN(c2ccccc2)C12CCN(C[C@@H]1CCc3ccccc3O1)CC2 [Example 3]			0.6
O=C1NCN(c2ccccc2)C12CCN(CC1CCc3ccccc3O1)CC2 (centres unmarked) [Example 1, 8-(Chroman-2-yl-methyl)-1-phenyl-1,3,8-triazaspiro[4.5]-decan-4-one]	2		0.2

Reference: US6060482A, “Triazaspirodecanone-methylchromans” (Bayer Aktiengesellschaft, priority 1991, dated 2000)
